Measured values reported in PMC6874530, “Structural analysis identifies an escape route from the adverse lipogenic effects of liver X receptor ligands” (Communications Biology, 2019).
pKd: −log10 of the molar value.

Tests used:
[1] = quantification of drug concentration in plasma of mice; type: in vivo, mouse; details: oral gavage
Procedure: Solid compounds were solubilized in PEG400/Ethanol/Solutol/Water solution (36.3/9.1/4.6/50%). Compounds were given daily by oral gavage, 5 ml kg^−1, at doses ranging from 0.1 to 100 μmol kg^−1 of body weight for 4 days. Animals were terminated 3 h after the last dose.
At termination, the whole-blood volume was drawn from isoflurane-anesthetized mice via an incision in the carotid artery into EDTA blood tubes (S-Monovette®, EDTA KE/1.3 mL, Sarstedt, Nümbrecht, Germany or BD Microtainers®, Benton, Dickinson and Company, Franklin Lakes, New Jersey, USA). Blood samples were placed on ice and centrifuged within an hour (15 min, 2500 × g, 4 °C or 5 min, 16000 × g, 4 °C). The plasma was then dispensed in separate tubes and kept at −80 °C for later analysis of compound concentration and TG levels. For the analysis of intestinal Abca1 transcript levels, a 3–5-mm long segment of the duodenum was excised and cleared from any gut contents. Tissues were instantly snap frozen in liquid nitrogen and stored at −80 °C.
About 25 µL of plasma was precipitated with 150 µL of cold acetonitrile containing 0.2% formic acid. After vortexing followed by 20 min of centrifugation at 3220 × g and 4 °C, the supernatant was diluted 1:1 with 0.2% formic acid (aqueous phase). […]

LXRα/SRC1 = target: T1, LXRα/SRC1 (Homo sapiens, UniProt Q13133); test: SPR cofactor recruitment, LXRα LBD binding to immobilized SRC1 coactivator peptide; details: LXRα LBD 0.02–10 µM equilibrated with compound (50 μM)
T1 construct: Human his-tagged LXRα LBD (200-447); His tag; made in house; host or cells: Escherichia coli BL21(DE3)
T1 sequence (Q13133 200-447): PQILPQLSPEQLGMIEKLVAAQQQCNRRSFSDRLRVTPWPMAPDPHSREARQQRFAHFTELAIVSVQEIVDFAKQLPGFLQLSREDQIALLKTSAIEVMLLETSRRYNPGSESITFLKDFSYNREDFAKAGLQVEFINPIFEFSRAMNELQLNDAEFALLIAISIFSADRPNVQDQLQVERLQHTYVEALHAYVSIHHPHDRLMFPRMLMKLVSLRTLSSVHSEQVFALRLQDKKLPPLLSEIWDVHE
T1 sequence (Q15788 with tags, fused parts or gaps partner limits assumed): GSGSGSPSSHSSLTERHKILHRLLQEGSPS
Procedure: (§1) The peptides carried an N-terminal biotin for surface immobilization on a Xantec NID200M Sensor Chip (NTA-derivatized carboxymethyldextran hydrogel, XanTec bioanalytics GmbH) preloaded with Ni^2+. […] LXRα and LXRβ LBD proteins were serially diluted in SPR running buffer (10 mM HEPES, 150 mM NaCl, and 0.05% Tween 20, pH 7.4) to a broad range of concentrations (0.02–10 µM) and equilibrated with tested compound (50 μM) prior to the sample injection over a modified biosensor surface. LXR-ligand complexes were injected in quick succession for 120 s over immobilized cofactor peptides and reference surfaces along with blank samples followed by 900 s of dissociation. The binding level at equilibrium was monitored for all samples, including the reference sample that contained DMSO at equal amount as tested compounds. All data were normalized to this reference sample in order to quantify the effects on peptide binding without bias by receptor instability. The surface was regenerated with 0.5% (w/v) SDS after each injection. Binding responses in the steady-state region of the sensorgrams were plotted against LXR LBD concentration to determine the overall equilibrium-binding affinity by fitting the data to nonlinear regression (Prism 8; GraphPad).

LXRβ LBD = target: T2, LXRβ LBD (Homo sapiens, UniProt P55055); details: LXRβ over LXRα binding
T2 sequence (P55055 215-460 limits assumed): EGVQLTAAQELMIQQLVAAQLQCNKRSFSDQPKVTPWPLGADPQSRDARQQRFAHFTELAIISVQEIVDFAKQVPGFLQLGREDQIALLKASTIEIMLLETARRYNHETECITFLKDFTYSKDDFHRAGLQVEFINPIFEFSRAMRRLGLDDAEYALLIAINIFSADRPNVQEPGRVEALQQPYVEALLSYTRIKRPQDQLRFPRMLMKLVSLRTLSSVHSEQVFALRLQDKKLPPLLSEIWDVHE
Excerpt: The compounds were run in triplicate (binding assay) or in quadruplicate (transactivation assay). Standard deviations are indicated for individual experiments run more than once.

LXRβ/SRC1 = target: T3, LXRβ/SRC1 (Homo sapiens, UniProt P55055); test: SPR cofactor recruitment, LXRβ LBD binding to immobilized SRC1 coactivator peptide; details: LXRβ LBD 0.02–10 µM equilibrated with compound (50 μM), immobilized SRC1 peptide; read-out: LXRβ/SRC1 Kd
T3 construct: human his-tagged LXRβ LBD (216-461); His tag; made in house; host or cells: Escherichia coli BL21(DE3)
T3 sequence (P55055 215-460 limits assumed): T2 sequence (P55055 215-460 limits assumed)
T3 sequence (Q15788 with tags, fused parts or gaps partner limits assumed): T1 sequence (Q15788 with tags, fused parts or gaps partner limits assumed)
Procedure: as §1

LXRβ/NCOR1 = target: T4, LXRβ/NCOR1 (Homo sapiens, UniProt P55055); test: SPR cofactor recruitment, LXRβ LBD binding to immobilized NCOR1 corepressor peptide
T4 construct: human his-tagged LXRβ LBD (216-461); His tag; made in house; host or cells: Escherichia coli BL21(DE3)
T4 sequence (P55055 215-460 limits assumed): T2 sequence (P55055 215-460 limits assumed)
Procedure: as §1

LXR KO macrophages = test: LXR target gene expression in LXR KO macrophages; type: cell-based; details: reply to reviewers
LXRα/NCOR1 = target: T5, LXRα/NCOR1 (Homo sapiens, UniProt Q13133); test: SPR cofactor recruitment, LXRα LBD binding to immobilized NCOR1 corepressor peptide
T5 construct: Human his-tagged LXRα LBD (200-447); His tag; made in house; host or cells: Escherichia coli BL21(DE3)
T5 sequence (Q13133 200-447): T1 sequence (Q13133 200-447)
T5 sequence (O75376 with tags, fused parts or gaps partner limits assumed): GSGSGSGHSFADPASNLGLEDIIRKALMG
Procedure: as §1

ABCA1 mRNA = test: human whole blood assay, ABCA1 mRNA; type: cell-based; details: preliminary results, reply to reviewers
plasma triglycerides = tested on: plasma triglycerides; parameters: method as in van der Hoorn et al. 2011; details: AZ876 high dose 20 µmol·kg−1·day−1, GW3965 at a similar dose; ref van der Hoorn et al. 2011; cited from earlier work

SMILES: CN(C)C(=O)c1cnc(N2CC[C@@H](CNC3=C(c4ccccc4)S(=O)(=O)N(C(C)(C)C)C3=O)C2)c(Cl)c1 [AZ5]
- systemic exposure [1]: too low

SMILES: CC(C)N1C(=O)C(NC2CCN(c3ncc(CC(=O)O)cc3Cl)CC2)=C(c2ccccc2)S1(=O)=O [AZ6]
- pKd (LXRα/SRC1): 5.82

SMILES: CC(C)(C)N1C(=O)C(Cc2ccccc2)=C(NC2CCN(c3ncc(CC(=O)O)cc3Cl)CC2)C1=O [AZ7]
- LXRβ binding selectivity (LXRβ LBD): more than tenfold

SMILES: CC(C)(O)c1cn(-c2ccc(-c3cc(F)c(CO)c(S(C)(=O)=O)c3)cc2F)c(C(C)(C)c2c(Cl)cccc2Cl)n1 [BMS-852927]
- pKd (LXRβ/SRC1): 4.70
- effect on the LXRβ/NCOR1 interaction (LXRβ/NCOR1): enhanced the interaction
- LXR target gene expression in LXR KO macrophages (LXR KO macrophages): does not induce LXR
- effect on the LXRα/NCOR1 interaction (LXRα/NCOR1): enhanced the interaction
- ABCA1 mRNA levels in human whole blood assay (ABCA1 mRNA): induces ABCA1 mRNA levels, however with lower efficiency than full

SMILES: O=C(O)Cc1cccc(OCCCN(Cc2cccc(C(F)(F)F)c2Cl)CC(c2ccccc2)c2ccccc2)c1 [GW3965, reference compound]
- increase of plasma triglyceride levels (plasma triglycerides): 70%
